Data set [1] has as its target T1, recombinant active full-length human MEK7 (Homo sapiens, UniProt O14733).
T1 construct: recombinant active full-length human MEK7 (Carna Biosciences); purchased Carna Biosciences
T1 sequence (O14733 1-419): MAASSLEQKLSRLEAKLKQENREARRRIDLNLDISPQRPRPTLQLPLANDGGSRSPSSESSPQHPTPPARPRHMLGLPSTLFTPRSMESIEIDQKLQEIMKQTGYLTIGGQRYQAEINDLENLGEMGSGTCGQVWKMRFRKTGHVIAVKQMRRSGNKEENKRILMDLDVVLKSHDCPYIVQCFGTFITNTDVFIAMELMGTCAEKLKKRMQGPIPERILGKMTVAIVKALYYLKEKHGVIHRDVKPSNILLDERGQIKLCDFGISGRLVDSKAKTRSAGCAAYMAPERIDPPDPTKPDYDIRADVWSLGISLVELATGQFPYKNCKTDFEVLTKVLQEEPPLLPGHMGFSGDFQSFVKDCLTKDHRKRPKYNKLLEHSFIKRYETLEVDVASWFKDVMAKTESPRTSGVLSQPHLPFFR
Description: ADP-Glo kinase activity assay, MEK7 with JNK1 substrate. It counts as biochemical. The conditions noted are these: for IC50: 30 min preincubation. The procedure:
Procedure for a 5 μL Kinase reaction using the ADP-Glo Kinase Assay Kit from Promega. Staurosporine was used as the positive control, and DMSO (vehicle) was employed as the negative control. Activity of recombinant active full-length human MEK7 (Carna Biosciences) was measured with recombinant full-length human substrate JNK1 (MAPK8). Using a Mantis, a mixture of MEK7 and JNK1 was dispensed into a 384-well low volume white Proxiplate. For each well, 4 ng of MEK7 and 600 ng of JNK1 in kinase buffer (CST) were used, accounting for 1 μL of this mixture per well. Inhibitor was prepared in a DMSO solution (40 mM). A dose-response dilution was performed in a 384-well Echo transfer plate. Using an Echo Access, 10 nL of each solution was dispensed into the same 384-well low volume white Proxiplate as above. This mixture was allowed to incubate for 30 minutes at room temperature. Using a Mantis, 1 uL of an 8 μM ATP solution was added to each well, and the plate was allowed to incubate for another 1 hour at room temperature. Using the Mantis again, 4 μL of ADP Glo Reagent was dispensed into each well, and the plate was allowed to incubate for 45 min at room temperature. Finally, 9 μL of Kinase Detection Reagent was added manually to each well, and the plate was allowed to incubate for 45 minutes at room temperature. Luminescence was read on a Synergy Neo2 Plate Reader with filter cubes 3 and 114. Integration time was set to 0.20 seconds, gain set to 160, and read height set at 6 mm. All experiments were performed in triplicate on the plate, and at least in one separate technical duplicate was performed.
MEK4 selectivity was performed in the same manner with activated MEK4 (Carna Biosciences). Here, p-38α was employed as the kinase substrate in lieu of JNK1 due to the availability of reagents. […] To probe the ATP-competitive nature of 25, this compound was subjected to a similar assay forgoing the 30 minute incubation time described above (STAR Protocols 2021, 2, 100717). The results are tabulated below in compound characterization. Potency determined by duplicate of triplicates corresponded to a IC50 value, which is in line with the ratio difference observed among other covalent inhibitors (for examples, see Cell Chem. Biol. 2020, 27, 1285).

A further data set has as its target T2, MEK3 (Homo sapiens, UniProt P46734).
T2 sequence (P46734 1-347): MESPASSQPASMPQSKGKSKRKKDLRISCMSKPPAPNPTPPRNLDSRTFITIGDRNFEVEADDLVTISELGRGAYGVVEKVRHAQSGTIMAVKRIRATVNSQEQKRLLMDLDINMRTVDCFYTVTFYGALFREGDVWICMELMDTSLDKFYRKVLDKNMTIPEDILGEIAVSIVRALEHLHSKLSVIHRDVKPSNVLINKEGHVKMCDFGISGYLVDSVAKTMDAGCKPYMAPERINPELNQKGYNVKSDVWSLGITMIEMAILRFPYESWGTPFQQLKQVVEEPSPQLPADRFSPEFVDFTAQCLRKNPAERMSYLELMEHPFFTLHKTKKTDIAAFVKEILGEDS
Description: Additional selectivity assay, MEK3 (FIG. 9). It counts as binding.

The target in a further data set is T3, MEK5 (Homo sapiens, UniProt Q13163).
T3 sequence (Q13163 1-448): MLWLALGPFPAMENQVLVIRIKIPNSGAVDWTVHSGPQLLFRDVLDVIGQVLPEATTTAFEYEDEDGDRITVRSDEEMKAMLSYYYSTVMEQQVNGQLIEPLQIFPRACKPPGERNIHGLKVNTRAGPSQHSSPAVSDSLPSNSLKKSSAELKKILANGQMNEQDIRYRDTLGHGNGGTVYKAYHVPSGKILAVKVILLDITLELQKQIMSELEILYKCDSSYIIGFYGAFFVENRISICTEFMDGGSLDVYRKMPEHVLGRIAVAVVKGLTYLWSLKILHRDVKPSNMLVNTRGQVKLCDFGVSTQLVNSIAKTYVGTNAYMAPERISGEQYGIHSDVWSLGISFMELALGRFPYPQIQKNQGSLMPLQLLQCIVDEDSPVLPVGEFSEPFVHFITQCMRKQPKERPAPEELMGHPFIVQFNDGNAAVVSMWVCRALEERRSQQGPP
Description: Additional selectivity assay, MEK5 (FIG. 9). Type of data set: binding.

For a further data set, the target named is T4, MEK6 (Homo sapiens, UniProt P52564).
T4 sequence (P52564 1-334): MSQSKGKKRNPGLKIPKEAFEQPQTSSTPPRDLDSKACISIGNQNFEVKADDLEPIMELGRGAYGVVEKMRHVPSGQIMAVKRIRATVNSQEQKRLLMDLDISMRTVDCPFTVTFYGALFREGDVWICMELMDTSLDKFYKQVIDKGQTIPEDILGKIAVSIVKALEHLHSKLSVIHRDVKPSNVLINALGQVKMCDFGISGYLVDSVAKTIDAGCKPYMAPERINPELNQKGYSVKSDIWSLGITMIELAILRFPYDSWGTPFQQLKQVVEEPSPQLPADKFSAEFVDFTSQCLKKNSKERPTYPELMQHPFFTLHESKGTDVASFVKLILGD
Description: Additional selectivity assay, MEK6 (FIG. 9). Type of data set: binding.

A short description of a further data set: PAMPA permeability. Type of data set: in vitro ADME. The conditions noted are these: FIG. 12.
Where [2] appears, read: overall value of two experiments, read-out: MEK7 IC50.
[3] abbreviates: MEK7 IC50, first experiment (IC50±SEM, n=3), first value in brackets.
Setting [4] is: MEK7 IC50, second experiment (IC50±SEM, n=3), second value in brackets.

From patent publication US20250049791A1, “Synthesis of MEK7 Inhibitors and methods of Use Thereof” (Northwestern University, priority 2023, published 2025) come the findings set out here.

Where two headings read alike, the source gives them in different places.

For `CNc1cc(Oc2cccc(NC(=O)CCl)c2)ncn1` [Compound 8, 2-chloro-N-(3-((6-(methylamino)pyrimidin-4-yl)oxy)phenyl)acetamide], the 50% inhibitory concentration (IC50) in data set [1] (setting [2]) came out at 0.06 µM; in data set [1] (read-out: MEK7 IC50), 0.06 µM; in data set [1] (setting [3]), 0.087 ± 0.041 µM; in data set [1] (setting [4]) it was 0.034 ± 0.042 µM. At MEK3, the “activity/binding at MEK3” value is “inactive”. Further, the “activity/binding at MEK5” value at MEK5 was “inactive”. On MEK6, the “activity/binding at MEK6” value was “inactive”. The PAMPA cell permeability entry in the data set “PAMPA permeability” is recorded as “highly membrane permeable”.
Consider `C=CC(=O)Nc1cccc(Oc2cc(NC)ncn2)c1` [Compound 9, N-(3-((6-(methylamino)pyrimidin-4-yl)oxy)phenyl) acrylamide], for which, in data set [1] (ADP-Glo assay, comparison within the series), the “in vitro activity against MAP2K7, in words” value is “less active than compound 8”. Besides, the IC50 in data set [1] (setting [3]) was 0.23 ± 0.19 µM; in data set [1] (setting [4]), 0.61 ± 0.4 µM. Also, the “activity/binding at MEK3” value on MEK3 was “inactive”. For the same compound, the “activity/binding at MEK5” value on MEK5 is “inactive”. Moreover, the “activity/binding at MEK6” value on MEK6 was “inactive”.
Turning to `O=C(CCl)Nc1cccc(Oc2cc(NCc3cc(C(F)(F)F)cc(C(F)(F)F)c3)ncn2)c1` [Compound 33, N-(3-((6-((3,5-bis(trifluoromethyl)benzyl)amino)pyrimidin-4-yl)oxy)phenyl)-2-chloroacetamide], the figures for the half-maximal inhibitory concentration (IC50) in data set [1] (setting [3]) and in data set [1] (setting [4]) were 4 ± 4.4 µM and 8.5 ± 9.8 µM, respectively.
With `COc1ccc(CNc2cc(Oc3cccc(NC(=O)CCl)c3)ncn2)cc1OC` [Compound 35, 2-chloro-N-(3-((6-((3,4-dimethoxybenzyl)amino)pyrimidin-4-yl)oxy)phenyl)acetamide], the figures for the IC50 in data set [1] (setting [2]), in data set [1] (setting [3]) and in data set [1] (setting [4]) were 0.26 µM, 0.39 ± 0.73 µM and 0.12 µM, respectively.
In the case of `Cc1ccc(CNc2cc(Oc3cccc(NC(=O)CCl)c3)ncn2)cc1` [Compound 36, 2-chloro-N-(3-((6-((4-methylbenzyl)amino)pyrimidin-4-yl)oxy)phenyl)acetamide], the IC50 in data set [1] (setting [2]) turned out to be 0.36 µM; in data set [1] (setting [3]), 0.42 ± 0.32 µM; in data set [1] (setting [4]), 0.3 ± 0.15 µM.
As for `O=C(CCl)Nc1cccc(Oc2cc(NCc3ccc(C(F)(F)F)cc3)ncn2)c1` [Compound 37, 2-chloro-N-(3-((6-((4-(trifluoromethyl)benzyl)amino)pyrimidin-4-yl)oxy)phenyl)acetamide], the values for the 50% inhibitory concentration (IC50) in data set [1] (setting [2]), in data set [1] (setting [3]) and in data set [1] (setting [4]) were 0.41 µM, 0.2 ± 0.41 µM and 0.64 ± 0.27 µM, respectively.
